Patent publication US11840528B2 (Hoffmann-La Roche Inc., priority 2018, dated 2023)

Experiments:
h-GABA-A α5β3γ2 [1] = molecular target: T1, h-GABA-A α5β3γ2 (Homo sapiens, UniProt P18507+P31644); test: [3H]flumazenil competition binding assay, membranes of HEK293 cells expressing GABAA receptors; settings: displacement of [3H]-Flumazenil 0.5 nM, HEK293 cells expressing human receptors, mean of two determinations; Table 1
Procedure: The affinity of compounds at GABAA receptor subtypes was measured by competition for [3H]flumazenil (85 Ci/mmol; Roche) binding to HEK293 cells expressing rat (stably transfected) or human (transiently transfected) receptors of composition α1β3γ2, α2β3γ2, α3β3γ2 and α5β3γ2.
Cell pellets were suspended in Krebs-tris buffer (4.8 mM KCl, 1.2 mM CaCl2), 1.2 mM MgCl2, 120 mM NaCl, 15 mM Tris; pH 7.5; binding assay buffer), homogenized by polytron for ca. 20 sec on ice and centrifuged for 60 min at 4° C. (50000 g; Sorvall, rotor: SM24=20000 rpm). The cell pellets were resuspended in Krebs-tris buffer and homogenized by polytron for ca. 15 sec on ice. Protein was measured (Bradford method, Bio-Rad) and aliquots of 1 mL were prepared and stored at −80° C.
Assays were incubated to equilibrium for 1 hour at 4° C. and harvested onto GF/C uni-filters (Packard) by filtration using a Packard harvester and washing with ice-cold wash buffer (50 mM Tris; pH 7.5). After drying, filter-retained radioactivity was detected by liquid scintillation counting. Ki values were calculated using Excel-Fit (Microsoft) and are the means of two determinations.

h-GABA-A α5β3γ2 [2] = molecular target: T1, h-GABA-A α5β3γ2; test: Two-electrode voltage clamp electrophysiology in Xenopus laevis oocytes expressing GABAA receptors, modulation of GABA EC20 current; format: cell-based; design: host or cells: Xenopus laevis oocytes micro-injected with RNA transcripts of the subunits
Procedure: Xenopus laevis oocytes at maturation stages V-VI were used for the expression of cloned mRNA encoding GABAA receptor subunits. Oocytes ready for RNA micro-injection were bought from Ecocyte, Castrop-Rauxel, Germany and stored in modified Barth's medium (composition in mM: NaCl 88, KCl 1, NaHCO32.4, HEPES 10, MgSO4 0.82, CaNO3 0.33, CaCl2 0.33, pH=7.5) at 20° C. until the experiment.
Oocytes were plated in 96-well plates to be used in an automated instrument (Robo-ocyte, MultiChannelSystems, Reutlingen, Germany) for microinjection and electrophysiological recordings. Approximately 50 nl of an aqueous solution containing the RNA transcripts for the subunits of the desired GABAA receptor was injected into each oocyte. RNA concentrations ranged between 0.3 and 16 ng/μl/subunit and were adjusted in pilot experiments to obtain GABA responses of a suitable size and a maximal effect of the reference modulator, Beta-CCM (β-CCM), a betacarboline negative allosteric modulator (NAM) at the GABAA receptor benzodiazepine (BZD) binding site or Midazolam, a benzodiazepine positive allosteric modulator (PAM) at the GABAA receptor benzodiazepine (BZD) binding site. The concentration of the γ2 subunit encoding RNA usually was 5- to 10-fold higher than the RNAs encoding the other subunits. Oocytes were kept in modified Barth's medium (composition in mM: NaCl 88, KCl 1, NaHCO3 4, HEPES 10, MgSO4 0.82, CaNO3 0.33, CaCl2) 0.33, pH=7.5) at 20° C. until the experiment.
Electrophysiological experiments were performed on days 3 to 5 after the micro-injection of mRNA. During the experiment the oocytes were constantly superfused by a solution containing (in mM) NaCl 90, KCl 1, HEPES 5, MgCl2 1, CaCl2) 1 (pH 7.4). Oocytes were impaled by two glass microelectrodes (resistance: 0.4 MΩ) which were filled with a solution containing KCl 1M+K-acetate 1.5 M and voltage-clamped to −80 mV. The recordings were performed at room temperature using the Roboocyte two-electrode voltage clamp system (Multichannelsystem). After an initial equilibration period of 1.5 min GABA was added for 1.5 min at a concentration evoking approximately 20% of a maximal current response (EC20). After another rest interval of 2.5 min GABA was again added evoking a response of similar amplitude and shape. 0.5 min after the onset of this second GABA application the test compound, at a concentration corresponding to approximatively 30 fold its Ki, was added while GABA was still present. Current traces were recorded at a digitization rate of 10 Hz during and shortly before and after the GABA application.
Each compound and concentration was tested on at least 3 oocytes. Different oocytes were used for different compound concentrations. β-CCM, a negative allosteric modulator, or Midazolam, a positive allosteric modulators, were tested on a few (3-6) oocytes on each 96-well plate for a positive control at a maximally effective. β-CCM inhibited the GABA-evoked current by approximatively 50% (Fold increase ˜0.5), while Midazolam potentiated the GABA-induced current by approximatively 150% (Fold increase ˜2.5).
For the analysis, the digitized current traces of the first and second GABA response were superimposed and, if necessary, rescaled to equal maximal amplitudes. The ratio between the two responses during the time interval of test compound application was calculated point by point. The extremum of the resulting “ratio trace” was taken as the efficacy (“Fold increase”) of the compound expressed as “% modulation of GABA EC20” (100*(Fold increase-1)).

[3] = % modulation of GABA EC20 = 100*(Fold increase-1), Table 1
[4] = test compound at approx. 30 fold its Ki, GABA at EC20, Table 1
[5] = positive control at a maximally effective concentration, 3-6 oocytes per plate

SMILES	Ki (h-GABA-A α5β3γ2 [1]) [nM]	Efficacy (GABA) % (h-GABA-A α5β3γ2 [2]; [3]) [%]	Fold increase h-GABA-A α5β3γ2 oocyte (h-GABA-A α5β3γ2 [2]; [4])	Fold increase (h-GABA-A α5β3γ2 [2]; [5])	potentiation of the GABA-induced current (h-GABA-A α5β3γ2 [2]; [5]) [%]	Efficacy (GABA) % (h-GABA-A α5β3γ2 [2]; reference compounds, % modulation of GABA EC20, Table 2) [%]	Fold increase h-GABA-A α5β3γ2 oocyte (h-GABA-A α5β3γ2 [2]; reference compounds, Table 2)	inhibition of the GABA-evoked current (h-GABA-A α5β3γ2 [2]; [5]) [%]
CCO[C@H]1COC2(C1)CN(c1cnn(Cc3c(-c4ccc(C)nc4)noc3C)c(=O)c1)C2 [Example 135, 5-[(7R)-7-ethoxy-5-oxa-2-azaspiro[3.4]octan-2-yl]-2-[[5-methyl-3-(6-methyl-3-pyridyl)isoxazol-4-yl]methyl]pyridazin-3-one]	28.1	119	2.19					
Cc1onc(-c2ccc(Cl)nc2)c1Cn1ncc(N2CC3(C2)CC(F)(F)CO3)cc1=O [Example 217, 2-((3-(6-chloropyridin-3-yl)-5-methylisoxazol-4-yl)methyl)-5-(7,7-difluoro-5-oxa-2-azaspiro[3.4]octan-2-yl)pyridazin-3(2H)-one]	12.3	85	1.85					
Cc1onc(-c2ccc(F)cc2)c1Cn1ncc(N2CCC(n3c(C)nnc3C)CC2)cc1=O [Example 55, 5-(4-(3,5-Dimethyl-4H-1,2,4-triazol-4-yl)piperidin-1-yl)-2-((3-(4-fluorophenyl)-5-methylisoxazol-4-yl)methyl)pyridazin-3(2H)-one]	43.4	85	1.85					
Cc1ccc(-c2noc(C)c2Cn2ncc(N3CC(Oc4cccnc4)C3)cc2=O)cn1 [Example 126, 2-[[5-methyl-3-(6-methyl-3-pyridyl)isoxazol-4-yl]methyl]-5-[3-(3-pyridyloxy)azetidin-1-yl]pyridazin-3-one]	9.4	134	2.34					
Cc1ccc(-c2noc(C)c2Cn2ncc(-c3ccnc(N4CCNCC4)c3)cc2=O)cn1 [Example 163, 2-((5-methyl-3-(6-methylpyridin-3-yl)isoxazol-4-yl)methyl)-5-(2-(piperazin-1-yl)pyridin-4-yl)pyridazin-3(2H)-one]	11.4	165	2.65					
CNc1cnn(Cc2c(-c3ccc(C)nc3)noc2C)c(=O)c1 [Example 78, 2-((5-methyl-3-(6-methylpyridin-3-yl)isoxazol-4-yl)methyl)-5-(methylamino)pyridazin-3(2H)-one]	64.6	92	1.92					
Cc1ccc(-c2noc(C)c2Cn2ncc(-c3cnn(CC(F)F)c3)cc2=O)cn1 [Example 153, 5-(1-(2,2-difluoroethyl)-1H-pyrazol-4-yl)-2-((5-methyl-3-(6-methylpyridin-3-yl)isoxazol-4-yl)methyl)pyridazin-3(2H)-one]	24.2	166	2.66					
CO[C@@H]1CN(c2cnn(Cc3c(-c4ccc(C)nc4)noc3C)c(=O)c2)[C@@H]1C [Example 194, 5-[(2R,3R)-3-methoxy-2-methyl-azetidin-1-yl]-2-[[5-methyl-3-(6-methyl-3-pyridyl)isoxazol-4-yl]methyl]pyridazin-3-one]	10.8	152	2.52					
Cc1ccc(-c2noc(C)c2Cn2ncc(N3CC(OC4CCC4)C3)cc2=O)nn1 [Example 238, 5-[3-(cyclobutoxy)azetidin-1-yl]-2-[[5-methyl-3-(6-methylpyridazin-3-yl)isoxazol-4-yl]methyl]pyridazin-3-one]	6.8	128	2.28					
Cc1onc(-c2ccc(Cl)nc2)c1Cn1ncc(N2C[C@@H](O)[C@H]2C)cc1=O [Example 289, 2-((3-(6-chloropyridin-3-yl)-5-methylisoxazol-4-yl)methyl)-5-((2R,3R)-3-hydroxy-2-methylazetidin-1-yl)pyridazin-3(2H)-one]	2.2	68	1.68					
Cc1ccc(-c2nocc2Cn2ncc(N3C[C@@H](C)O[C@@H](C)C3)cc2=O)cn1 [Example 32, 5-(cis-2,6-dimethylmorpholin-4-yl)-2-[[3-(6-methyl-3-pyridyl)isoxazol-4-yl]methyl]pyridazin-3-one]	12.7	288	3.88					
Cc1ccc(-c2noc(C)c2Cn2ncc(N3CC(OC(C)(C)C)C3)cc2=O)cn1 [Example 150, 5-(3-tert-butoxyazetidin-1-yl)-2-[[5-methyl-3-(6-methyl-3-pyridyl)isoxazol-4-yl]methyl]pyridazin-3-one]	30.4	85	1.85					
Cc1ccc(-c2noc(C)c2Cn2ncc(N3CC4(C[C@@H](O)CO4)C3)cc2=O)cn1 [Example 132, 5-[(7R)-7-hydroxy-5-oxa-2-azaspiro[3.4]octan-2-yl]-2-[[5-methyl-3-(6-methyl-3-pyridyl)isoxazol-4-yl]methyl]pyridazin-3-one]	19.5	119	2.19					
Cc1ccc(-c2noc(C)c2Cn2ncc(N3CC4(CCC(F)CO4)C3)cc2=O)nn1 (single isomer, unassigned) [Example 288]	3.2	63	1.63					
Cc1ccc(-c2noc(C)c2Cn2ncc(N3CC4(CCC(C)CO4)C3)cc2=O)nn1 (single isomer, unassigned) [Example 313]	7.9	103	2.03					
Cc1ccc(-c2noc(C)c2Cn2ncc(-c3cnn(C)c3)cc2=O)cn1 [Example 103, 2-((5-methyl-3-(6-methyl-3-pyridyl)isoxazol-4-yl)methyl)-5-(1-methylpyrazol-4-yl)pyridazin-3-one]	29.7	141	2.41					
Cc1onc(-c2ccc(Cl)nc2)c1Cn1ncc(N2CCO[C@@H](C)C2)cc1=O [Example 227, (S)-2-((3-(6-chloropyridin-3-yl)-5-methylisoxazol-4-yl)methyl)-5-(2-methylmorpholino)pyridazin-3(2H)-one]	4.4	149	2.49					
Cc1ncc2n1-c1ccc(Cl)cc1C(c1ccccc1F)=NC2 [Midazolam, reference compound]				~2.5	~150			
Cc1onc(-c2ccc(Cl)cn2)c1COc1ccc(C(=O)N2CCOCC2)cn1 [RO-309, reference compound]						−17	0.83	
COC(=O)c1cc2c(cn1)[nH]c1ccccc12 [β-CCM, reference compound]				~0.5				~50
